This note sets out measurements from ChEMBL document CHEMBL1201862, “PubChem BioAssay data set” (2004).

Among the test systems are RXF 631; SNB-78; DLD-1; KM-20L2; M19-MEL; DMS-114; XF498; HOP-18; DMS-273.
Holding throughout (experiment): NCI tumour cell line growth inhibition, 48 h

The structures appear in SMILES notation.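 How tested: cells in 96-well plates exposed to compound for 48 hours at five concentrations. GI50 is the concentration that inhibits growth by half.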 Activity calls are given as the source filed them. No stated cut-off is given here; in the data, active = GI50 up to about 1.1 µM and inactive = higher.

For the molecule `FC(F)(F)c1nc2ccc3[nH]c4c(-c5ccccc5)nccc4c3c2[nH]1`, the GI50 is > 100 µM (inactive) in the test with RXF 631; > 100 µM (inactive) in the test on SNB-78; > 100 µM (inactive) in the test with DLD-1; > 100 µM (inactive) in the test on KM-20L2; > 100 µM (inactive) with M19-MEL; > 45.4 µM (inactive) in the test with DMS-114. Besides, the GI50 in the test with XF498 and with HOP-18 was > 100 µM (inactive) each time.
With `Cc1ccc(Nc2nc3c(s2)C(=O)c2ccccc2C3=O)cc1`, the GI50 with DMS-273 was 1.95 µM (inactive); with RXF 631, 1.95 µM (inactive); in the test on SNB-78, 2.49 µM (inactive); in the test on DLD-1, 2.07 µM (inactive); in the test with KM-20L2, 17.5 µM (inactive); in the test on M19-MEL it was 0.324 µM (active). For the same molecule, the figures for the GI50 in the test with DMS-114, in the test with XF498 and with HOP-18 were 1.52 µM (inactive), 1.94 µM (inactive) and 1.13 µM (inactive), respectively.
With `CCOC(=O)Nc1ccc(S(=O)(=O)I)cc1.CCOC(=O)Nc1ccc(S(=O)(=O)I)cc1.CN(C=O)C1=C(N(C)C=O)C(N(C)C=O)=C(N(C)C=O)C(=O)C1=O`, the GI50 in the test with RXF 631, in the test on SNB-78, in the test with KM-20L2, with M19-MEL, in the test on DMS-114 and in the test on XF498 was > 100 µM (inactive) each time. Moreover, the GI50 in the test with HOP-18 was > 100 µM (inactive).
In the case of `CC1(Cl)C(=O)NC(=O)N([C@H]2C[C@H](O)[C@@H](CO)O2)C1N=[N+]=[N-]` (stereo partly drawn), the GI50 in the test with DMS-273, with RXF 631, in the test with SNB-78, in the test on DLD-1, in the test with KM-20L2 and in the test on M19-MEL was > 100 µM (inactive) each time. Moreover, the GI50 with DMS-114 was > 94.8 µM (inactive); in the test with XF498 it was > 100 µM (inactive); in the test with HOP-18 it was > 100 µM (inactive).
`CC(=O)C1C(=O)C(=O)N(CCN2C(=O)C(=O)C(C(C)=O)C2=O)C1=O` (stereo not drawn): the GI50 in the test with DMS-273, in the test on RXF 631, in the test with KM-20L2, in the test on M19-MEL, in the test with DMS-114 and in the test on XF498 was > 100 µM (inactive) each time. The GI50 in the test with HOP-18 is > 100 µM (inactive).
Consider `CC(=O)c1cc2c3c(c1)c1cc4c(cc1c(=O)n3CC2)OCO4`, for which the GI50 was 7 µM (inactive) in the test on DMS-273; 21.5 µM (inactive) in the test with RXF 631; > 100 µM (inactive) in the test with SNB-78; 15.2 µM (inactive) in the test on DLD-1; 23.7 µM (inactive) with KM-20L2; 34 µM (inactive) with M19-MEL. Besides, the GI50 is 37.7 µM (inactive) with DMS-114, > 100 µM (inactive) with XF498 and 13.5 µM (inactive) in the test with HOP-18.
As for `Cc1ccccc1-n1c2nc(=O)n(C)c(=O)c-2nc2ccccc21`, the GI50 was 10.9 µM (inactive) with DMS-273; 14.6 µM (inactive) with RXF 631; 18.6 µM (inactive) with SNB-78; 16.7 µM (inactive) with DLD-1; 7.35 µM (inactive) in the test with KM-20L2; 1.85 µM (inactive) with M19-MEL. The figures for the GI50 with DMS-114, with XF498 and in the test on HOP-18 were 4.9 µM (inactive), 17.5 µM (inactive) and 10.5 µM (inactive), respectively.
